Converted amounts (≈) assume the structure as drawn.
Tests used:
Format in all cases: cell-based
[1] = system: Janthinobacterium lividum DB00121; assay: Antibiotic MIC test; conditions: strain DB00121
Experimental: (§1) The antibiotic resistance profile and MICs tests were performed using Janthinobacterium lividum grown from cultures purified and grown in vegitone LB broth.

[2] = system: Janthinobacterium lividum DB02473; assay: Antibiotic MIC test; conditions: strain DB02473
Experimental: as §1

[3] = system: Janthinobacterium lividum DB00118; assay: Antibiotic MIC test
Experimental: as §1

[4] = system: Janthinobacterium lividum DB02378; assay: Antibiotic MIC test
Experimental: as §1

E. Coli ATCC25922 = assay: Antibiotic MIC test
[5] = system: fungal or bacterial pathogens; conditions: components for enhancing function of human-derived Janthinobacterium lividum
[6] = system: Janthinobacterium lividum (DBI001); assay: Biolog Phenotype MicroArray: components enhancing growth of Janthinobacterium in media
[7] = system: Janthinobacterium lividum strains; assay: Antibiotic MIC tests, sensitivity summary
Experimental: as §1

Row | Compound | MIC [1] [µg/mL] | MIC [2] [µg/mL] | MIC ([3]; strain DB00118) [µg/mL] | MIC ([4]; strain DB02378) [µg/mL] | MIC (E. Coli ATCC25922) [µg/mL] | improvement of growth of human-derived Janthinobacterium lividum [6] | also measured
1 | Neomycin | 1 | 2 | 2 | 2 | 2 |  | 
2 | Tween 40 |  |  |  |  |  | improve the growth | Concentration Range of Efficacy [5]: 2 to 20 mM
3 | CN(C)c1ccc(O)c2c1C[C@H]1C[C@H]3[C@H](N(C)C)C(O)=C(C(N)=O)C(=O)[C@@]3(O)C(O)=C1C2=O [Minocycline] |  |  |  |  |  |  | MIC ([3]; Janthinobacterium lividum, DB00118): 0.125 µg/mL (≈ 0.273 µM); MIC ([4]; Janthinobacterium lividum, DB02378): 0.125 µg/mL (≈ 0.273 µM)
4 | OC[C@@H](O)[C@@H](O)[C@H](O)[C@H](O)CO [D-Mannitol] |  |  |  |  |  | improve the growth | 
5 | Amoxicillin clavulanate | 0.5 | 1 | 1 | 1 | 8 |  | sensitivity of Janthinobacterium lividum strains to antibiotic [7]: less sensitive

Source: patent US20220160617A1, “COMPOSITIONS AND METHODS FOR IMPROVING SKIN HEALTH AND FOR THE TREATMENT AND PREVENTION OF DISEASES, DISORDERS AND CONDITIONS ASSOCIATED WITH PATHOGENIC MICROBES” (DermBiont, Inc., priority 2019, published 2022)
